Test [1] has as its target T1, Recombinant ROCK1 (amino acids 1-477) (Homo sapiens, UniProt Q13464).
T1 construct: Recombinant ROCK1 (amino acids 1-477); by word order, ROCK1 from Carna Biosciences
The experiment in a line: ROCK inhibition assay, LANCE Ultra TR-FRET kinase assay (ROCK1). The class given is biochemical. Particulars: 1 μM ATP, 50 nM ULight-CREBtide substrate. The procedure: (§1) Kinase IC50 was determined through an in vitro assay based on LANCE Ultra TR-FRET (Time-Resolved Fluorescence Resonance Energy Transfer) homogeneous technologies method (Perkin Elmer). Recombinant ROCK1 (amino acids 1-477) and ROCK2 (amino acids 5-554) proteins were purchased from Carna Biosciences and SignalChem. Compound activities were measured by Envision and IC50s were calculated. The assays were performed in white LUMITRAC™ 200 96 well half-area microplates from Greiner Bio-One. The kinase reaction buffer consisted of 50 mM HEPES pH 7.5, 1 mM EGTA, 10 mM MgCl2, 2 mM DTT and 0.01% Tween-20. Kinases were incubated with 50 nM (ULight-CREBtide) substrate in the presence of 1 (ROCK1) or 4 (ROCK2) μM ATP. The kinase reaction was carried out for 1 hour before addition of a stopping buffer to a final of 10 mM EDTA and 0.6 nM of LANCE Ultra Europium anti-phospho-CREB (Ser133) antibody (PerkinElmer TRF0200) in LANCE detection buffer. All assay incubations were performed at room temperature, and the microplates were sealed with polyester film during that time. The reaction was incubated for 1 hour, and the signal was read in Envision in TR-FRET mode (excitation at 320 nm and emission at 615/665 nm).
(§2) As used herein, a way to describe potency of inhibitory activity (nM) is a value of inhibitory activity at 50% (IC50).
Background: TR-FRET usually uses a lanthanide donor and a delayed reading to cut background.

For test [2], the target named is T2, Recombinant ROCK2 (amino acids 5-554) (Homo sapiens, UniProt O75116).
T2 construct: ROCK2 (amino acids 5-554); by word order, ROCK2 from SignalChem
The experiment in a line: ROCK inhibition assay, LANCE Ultra TR-FRET kinase assay (ROCK2). In kind it is biochemical. Particulars: 4 μM ATP, 50 nM ULight-CREBtide substrate. The procedure: as §1, §2

T2 sequence (O75116 5-554): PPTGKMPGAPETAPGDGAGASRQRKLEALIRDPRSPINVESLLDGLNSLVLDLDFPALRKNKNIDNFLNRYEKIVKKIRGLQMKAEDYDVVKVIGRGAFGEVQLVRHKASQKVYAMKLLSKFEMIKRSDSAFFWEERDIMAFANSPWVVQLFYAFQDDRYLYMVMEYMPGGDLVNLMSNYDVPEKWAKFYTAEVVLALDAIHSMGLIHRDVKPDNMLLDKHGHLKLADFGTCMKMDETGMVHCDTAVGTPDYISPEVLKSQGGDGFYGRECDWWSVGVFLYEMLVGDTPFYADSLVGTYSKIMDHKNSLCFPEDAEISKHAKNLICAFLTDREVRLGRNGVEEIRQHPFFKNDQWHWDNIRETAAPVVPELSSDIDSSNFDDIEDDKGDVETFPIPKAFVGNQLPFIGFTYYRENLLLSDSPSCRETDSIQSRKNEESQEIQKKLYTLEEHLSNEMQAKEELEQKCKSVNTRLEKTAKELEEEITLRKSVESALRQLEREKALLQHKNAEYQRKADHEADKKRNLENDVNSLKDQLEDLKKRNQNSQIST
T1 sequence (Q13464 1-477): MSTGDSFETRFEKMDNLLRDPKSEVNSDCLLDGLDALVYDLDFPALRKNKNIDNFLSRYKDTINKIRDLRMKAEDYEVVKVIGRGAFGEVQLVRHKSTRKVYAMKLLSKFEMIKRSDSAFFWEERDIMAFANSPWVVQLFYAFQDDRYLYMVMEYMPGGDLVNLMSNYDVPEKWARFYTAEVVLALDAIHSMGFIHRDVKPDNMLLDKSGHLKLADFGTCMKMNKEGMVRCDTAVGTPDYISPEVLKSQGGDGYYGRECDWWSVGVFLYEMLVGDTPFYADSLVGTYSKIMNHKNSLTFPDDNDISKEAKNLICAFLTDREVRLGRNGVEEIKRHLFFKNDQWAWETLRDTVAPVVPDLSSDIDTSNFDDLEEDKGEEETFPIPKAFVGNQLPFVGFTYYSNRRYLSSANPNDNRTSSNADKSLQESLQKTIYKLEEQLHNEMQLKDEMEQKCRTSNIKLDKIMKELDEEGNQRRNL

For orientation: IC50 means the concentration that gives 50% inhibition. For `CNC(=O)c1cccc(Cn2ccc3cc(-c4ccnn4C)ncc3c2=O)c1` [Compound 240], the concentration for half-maximal inhibition (IC50) in test [1] fell in the range of 101 to 500 nM; in test [2], 10 to 100 nM. The like results for `Cc1nocc1-c1ccc2c(=O)n(Cc3cccc(C(=O)Nc4ccc5c(c4)CCOC5)c3)ccc2c1` [Compound 91] were, in that order, 11 to 100 nM and less than 10 nM. With `[2H]C([2H])([2H])NC(=O)c1cccc(Cn2ccc3cc(-c4c[nH]nc4Cl)ncc3c2=O)c1` [Compound 236], the IC50 in test [1] is 11 to 100 nM; in test [2], less than 10 nM. The corresponding values for `CNC(=O)c1cc(Cn2ccc3cc(-c4conc4C)ccc3c2=O)ccc1F` [Compound 317] are 101 to 500 nM and 10 to 100 nM. The like results for `[2H]C([2H])([2H])NC(=O)c1cccc([C@@H](C)n2cnc3cc(-c4cn[nH]c4C(F)F)ccc3c2=O)c1` [Compound 458] were, in that order, 11 to 100 nM and less than 10 nM. The like results for `CNC(=O)c1cccc([C@@H](C)n2cnc3cc(-c4cn[nH]c4C)ccc3c2=O)c1` [Compound 441] were, in that order, 11 to 100 nM and less than 10 nM. With `CNC(=O)c1cccc(Cn2cc(C(C)O)c3cc(-c4c[nH]nc4C(F)F)ccc3c2=O)c1` (stereo not drawn) [Compound 535], the IC50 in test [1] and in test [2] was less than 10 nM throughout.

With `O=C(N[C@H]1CC[C@@H](O)CC1)c1cc(F)cc(Cn2ccc3cc(-c4c[nH]nc4Cl)ncc3c2=O)c1` [Compound 262], the IC50 in test [1] and in test [2] was less than 10 nM in each case. As to `Nc1cc(-c2ccc3c(=O)n(Cc4cc(F)cc(C(=O)NC5COC5)c4)ccc3c2)ccn1` [Compound 202], the IC50 is more than 501 nM in test [1] and 100 to 500 nM in test [2]. The corresponding values for `O=C(Nc1cccc(Cn2ccc3cc(-c4c[nH]nc4C(F)F)ccc3c2=O)c1)c1ccccc1` [Compound 344] are 101 to 500 nM and 10 to 100 nM. The like results for `O=C(NCC1CCOCC1)c1cccc(Cn2ccc3cc(-c4c[nH]nc4C(F)(F)F)ccc3c2=O)c1` [Compound 52] were, in that order, 11 to 100 nM and less than 10 nM. The corresponding values for `[2H]C([2H])([2H])NC(=O)c1cccc(Cn2cnc3cc(-c4conc4C)ccc3c2=O)c1` [Compound 412] are 11 to 100 nM and less than 10 nM. Turning to `CNC(=O)c1cc(F)cc(C(C)n2ccc3cc(-c4conc4C)ccc3c2=O)c1` (stereo not drawn) [Compound 316], the figures for the IC50 in test [1] and in test [2] were 11 to 100 nM and less than 10 nM, respectively. `O=C(Nc1ccon1)c1cccc(Cn2cnc3cc(-c4cn[nH]c4C(F)(F)F)ccc3c2=O)c1` [Compound 375]: the concentration for half-maximal inhibition (IC50) in test [1] lay in the range of 101 to 500 nM; in test [2] it was 10 to 100 nM.

Take `Cn1nccc1-c1ccc2c(=O)n(Cc3cc(F)cc(C(=O)NCC4CCNCC4)c3)ccc2c1` [Compound 173]: the IC50 was 11 to 100 nM in test [1] and less than 10 nM in test [2].

As to `CNC(=O)c1cc(F)cc(Cn2cnc3cc(-c4cn[nH]c4C(F)F)ccc3c2=O)c1` [Compound 401], the 50% inhibitory concentration (IC50) in test [1] was 11 to 100 nM; in test [2] it was less than 10 nM.

Consider `CN1CCC(CNC(=O)c2cccc(Cn3ccc4cc(-c5ccnn5C)ccc4c3=O)c2)CC1` [Compound 171], for which the IC50 is 11 to 100 nM in test [1] and less than 10 nM in test [2]. `[2H]C([2H])([2H])NC(=O)c1cc(F)cc(Cn2cnc3cc(-c4cn[nH]c4C(F)(F)F)ccc3c2=O)c1` [Compound 387]: the half-maximal inhibitory concentration (IC50) was 11 to 100 nM in test [1] and less than 10 nM in test [2]. Take `Cn1nccc1-c1ccc2c(=O)n(Cc3cccc(C(=O)NCC4COC4)c3)ccc2c1` [Compound 111]: the half-inhibitory concentration (IC50) in test [1] was 101 to 500 nM; in test [2], less than 10 nM.

On to `C[C@H](c1cccc(C(=O)Nc2ccc(F)cc2)c1)n1cnc2cc(-c3cn[nH]c3Br)ccc2c1=O` [Compound 517], for which the IC50 in test [1] is 11 to 100 nM; in test [2], less than 10 nM. The like results for `CO[C@H]1CC[C@@H](NC(=O)c2cc(F)cc(Cn3ccc4cc(-c5conc5C)ccc4c3=O)c2)CC1` [Compound 142] were, in that order, more than 501 nM and 100 to 500 nM. The corresponding values for `[2H]C([2H])([2H])NC(=O)c1cccc(Cn2cnc3cc(-c4cn[nH]c4Cl)ccc3c2=O)c1` [Compound 405] are less than 10 nM and less than 10 nM. The corresponding values for `COc1cccc(Cn2ccc3cc(-c4conc4C)ccc3c2=O)c1` [Compound 9] are 11 to 100 nM and less than 10 nM. As to `C[C@H](c1cccc(C(=O)NC2COC2)c1)n1cnc2cc(-c3cn[nH]c3Br)ccc2c1=O` [Compound 514], the IC50 in test [1] was 11 to 100 nM; in test [2], less than 10 nM.

Take `Cc1nocc1-c1ccc2c(=O)n(Cc3cccc(C(=O)Nc4ccc5c(c4)CN(C)CC5)c3)ccc2c1` [Compound 101]: the IC50 in test [1] and in test [2] was less than 10 nM in each case. `C[C@H](c1cccc(C(=O)N[C@H]2C[C@@H](O)C2)c1)n1cnc2cc(-c3ccnn3C)ccc2c1=O` [Compound 478]: the half-inhibitory concentration (IC50) in test [1] was 11 to 100 nM; in test [2] it was less than 10 nM.

`CCNC(=O)c1cc(F)cc(Cn2ccc3cc(-c4c[nH]nc4C)ncc3c2=O)c1` [Compound 254]: the half-inhibitory concentration (IC50) is 11 to 100 nM in test [1] and less than 10 nM in test [2]. The like results for `Cn1nccc1-c1ccc2c(=O)n(Cc3cccc(C(=O)Nc4ccc5c(c4)CN(C4CC4)CC5)c3)ccc2c1` [Compound 126] were, in that order, 11 to 100 nM and less than 10 nM.

In the case of `C[C@H](c1cccc(C(=O)NCc2ccncc2)c1)n1cnc2cc(-c3cn[nH]c3C(F)(F)F)ccc2c1=O` [Compound 447], the IC50 in test [1] and in test [2] was less than 10 nM throughout. Take `Cc1n[nH]cc1-c1ccc2c(=O)n(Cc3cccc(C(=O)Nc4ccn(C)n4)c3)ccc2c1` [Compound 32]: the IC50 in test [1] was 101 to 500 nM; in test [2], less than 10 nM.

On to `O=C(NC1CC1)c1cc(F)cc(Cn2ccc3cc(-c4c[nH]nc4C(F)(F)F)ccc3c2=O)c1` [Compound 133], for which the IC50 was in the range of 101 to 500 nM in test [1] and 10 to 100 nM in test [2].

As for `Cc1nocc1-c1ccc2c(=O)n(Cc3cc(F)cc(C(=O)NCC4CCNCC4)c3)ccc2c1` [Compound 150], the IC50 is 11 to 100 nM in test [1] and less than 10 nM in test [2]. The corresponding values for `O=C(NCC1CCN(CC(F)F)CC1)c1cccc(Cn2ccc3cc(N4CCOCC4)ccc3c2=O)c1` [Compound 219] are 101 to 500 nM and 10 to 100 nM. Consider `CC(=O)Nc1cc(F)cc(Cn2ccc3cc(-c4ccnc(N)c4)ccc3c2=O)c1` [Compound 353], for which the IC50 in test [1] is more than 501 nM; in test [2], 100 to 500 nM. Regarding `O=C(NCc1ccncc1)c1cccc(Cn2cnc3cc(-c4cn[nH]c4C(F)(F)F)ccc3c2=O)c1` [Compound 372], the 50% inhibitory concentration (IC50) in test [1] and in test [2] was less than 10 nM each time. For the compound `Cc1nocc1-c1ccc2c(=O)n(Cc3cccc(C(=O)NCC4CCN(C)CC4)c3)ccc2c1` [Compound 78], the IC50 was 11 to 100 nM in test [1] and less than 10 nM in test [2]. As to `Cc1nocc1-c1ccc2c(=O)n(Cc3cccc(C(=O)NC4CCN(CC(F)(F)F)CC4)c3)ccc2c1` [Compound 87], the half-maximal inhibitory concentration (IC50) in test [1] is 11 to 100 nM; in test [2] it was less than 10 nM. The like results for `CNC(=O)c1cc(F)cc(C(C)n2ccc3cc(-c4cn[nH]c4F)ccc3c2=O)c1` (stereo not drawn) [Compound 298] were, in that order, 11 to 100 nM and less than 10 nM. `Nc1cc(-c2ccc3c(=O)n(Cc4cccc(C(=O)N[C@H]5CC[C@H](O)CC5)c4)ccc3c2)ccn1` [Compound 193]: the half-inhibitory concentration (IC50) in test [1] was 101 to 500 nM; in test [2], 10 to 100 nM. The corresponding values for `Cc1n[nH]cc1-c1ccc2c(=O)n(Cc3cccc(O)c3)ccc2c1` [Compound 5] are 101 to 500 nM and 10 to 100 nM. The like results for `CC(O)c1cn(Cc2cccc(C(=O)NC3CCOCC3)c2)c(=O)c2ccc(-c3c[nH]nc3C(F)F)cc12` (stereo not drawn) [Compound 536] were, in that order, less than 10 nM and less than 10 nM. As for `Cc1nocc1-c1ccc2c(=O)n(Cc3cccc(C(=O)NCc4ccccc4)c3)cc(C(C)O)c2c1` (stereo not drawn) [Compound 539], the IC50 in test [1] was 11 to 100 nM; in test [2], less than 10 nM. Consider `CC(c1cccc(O)c1)n1ccc2cc(-c3c[nH]nc3C(F)F)ccc2c1=O` (stereo not drawn) [Compound 15], for which the IC50 was 11 to 100 nM in test [1] and less than 10 nM in test [2]. Turning to `O=C(Nc1cccc(Cn2ccc3cc(-c4c[nH]nc4C(F)F)ccc3c2=O)c1)c1cccnc1` [Compound 342], the values for the half-inhibitory concentration (IC50) in test [1] and in test [2] were 101 to 500 nM and 10 to 100 nM, respectively. For `C[C@H](c1cccc(C(=O)N(C)Cc2ccncc2)c1)n1cnc2cc(-c3cn[nH]c3C(F)(F)F)ccc2c1=O` [Compound 446], the IC50 is more than 501 nM in test [1] and more than 500 nM in test [2]. The like results for `O=C(NCC1CCNCC1)c1cccc(Cn2ccc3cc(N4CCOCC4)ccc3c2=O)c1` [Compound 217] were, in that order, 101 to 500 nM and 10 to 100 nM. Take `C[C@H](c1cccc(C(=O)Nc2ccon2)c1)n1cnc2cc(-c3cn[nH]c3C(F)(F)F)ccc2c1=O` [Compound 448]: the IC50 in test [1] fell in the range of 101 to 500 nM.

(Values after patent publication US12064426B2, “Selective inhibitors of ROCK1 and ROCK2 protein kinases and uses thereof” (GENOSCO Inc., priority 2021, dated 2024).)
